For 6 compounds, IC50 and Emax results are on record in patent US12325696B2, “Indazole derivative, preparation method therefor, and pharmaceutical application thereof” (JIANGSU HENGRUI MEDICINE CO., LTD., priority 2019, dated 2025).

What all share (assay type): cell-based
One assay deals with MCF7 cell. Description: Inhibition of proliferation of MCF7 cell (CellTiter-Glo, 144 hours). The conditions noted are these: Homo sapiens; for IC50: MCF7, CellTiter-Glo, read-out: IC50 of the inhibitory effect on the proliferation of MCF7 cell; for Emax: MCF7 cell proliferation, read-out: Maximum inhibition. The procedure:
(§1) MCF7 cells (ATCC, HTB-22) were cultured in MEM (GE Healthcare, SH30024.01) complete medium containing 10% fetal bovine serum. On the first day of the experiment, MCF7 cells were seeded in a 96-well plate with the complete medium at a density of 3,000 cells/well (100 μl of cell suspension per well), and the plate was incubated in a cell incubator at 37° C. and 5% CO2 overnight. On the second day, the medium in each well was replaced with 135 μl of MEM incomplete medium containing 2% fetal bovine serum. 15 μl of test compound solution of different concentrations formulated with the incomplete medium was added to each well, wherein the final concentrations of the compound were nine concentration points obtained by a 4-fold gradient dilution starting from 100 nM. A blank control containing 0.5% DMSO was set. The plate was incubated in a cell incubator at 37° C. and 5% CO2 for 144 hours. On the eighth day, the 96-well plate was taken out, and 150 μl of CellTiter-Glo® Luminescent Cell Viability Assay (Promega, G7573) was added to each well. The plate was left to stand at room temperature for 10 minutes, and the luminescence signal values were measured using a multi-label microplate reader (PerkinElmer, VICTOR 3). The IC50 values of the inhibitory activity of the compounds were calculated based on the concentrations and luminescence signal values of the compounds using Graphpad Prism software.
A graph of the chemiluminescence signal values versus the logarithmic concentrations of the compound was made using Graghpad Prism to obtain the IC50 values of the compound.

The test system of assay [1] is estrogen receptor reporter gene. Briefly: Inhibition of estrogen receptor reporter gene activity (ERE-luc luciferase) in MCF7/ERE-luc cells. The conditions noted are these: Homo sapiens, 0.1 nM β-estradiol, 20 hours, read-out: IC50 of inhibitory activity on the activity of the estrogen receptor reporter gene. The protocol:
MCF7 cells MCF7/ERE-luc (ATCC, HTB-22) expressing the luciferase reporter gene ERE-luc (synthesized by GENEWIZ, Inc.) controlled by the estrogen receptor response element were cultured in MEM (GE Healthcare, SH30024.01) medium containing 10% fetal bovine serum and 500 µg/ml G418. On the first day of the experiment, MCF7/ERE-luc cells were seeded in a 96-well plate with incomplete MEM medium containing 10% fetal bovine serum treated with activated charcoal (BioSun, BS-0004-500) at a density of 30,000 cells/well (100 μl of cell suspension per well), and the plate was incubated in a cell incubator at 37° C. and 5% CO2 overnight. On the second day, 10 μl of β-estradiol (SIGMA, E2758-250MG) solution formulated with the above incomplete medium or test compound solution of different concentrations formulated with the above incomplete medium was added to each well, wherein the final concentration of β-estradiol was 0.1 nM, and the final concentrations of the compound were nine concentration points obtained by a 10-fold gradient dilution starting from 10 μM, a blank control containing 0.5% DMSO was set, and the plate was incubated in a cell incubator at 37° C. and 5% CO2 for 20 hours. On the third day, the 96-well plate was taken out, and 100 μl of ONE-Glo™ Luciferase Assay system (Promega, E6110) was added to each well to determine the activity of luciferase. The plate was left to stand at room temperature for 3 minutes until the cells were fully lysed, and the luminescence signal values were measured using a multi-label microplate reader (PerkinElmer, VICTOR 3). The IC50 values of the inhibitory activity of the compounds were calculated using Graphpad Prism software based on the concentrations and luminescence signal values of the compounds.
The inhibitory effect of the compounds of the present disclosure on the activity of the estrogen receptor reporter gene was determined by the above test. A graph of the chemiluminescence signal values versus the logarithmic concentrations of the compound was made using Graghpad Prism.

A further assay concerns MCF7 ERαY537S. Briefly: Inhibition of proliferation of MCF7 cell expressing ERα Y537S mutant. Conditions: Homo sapiens, 144 hours; for Emax: read-out: Maximum inhibition.
Excerpt: (§2) The mutants ERα Y537S and ERα D538G of human estrogen receptor α (ERαs) protein were obtained by site-directed mutagenesis using the cDNA of wild-type ESR1 gene (Accession No. NM000125) as a template according to double-primer PCR. The primer sequences used for mutagenesis are as follows (the nucleotides underlined are the sites of mutagenesis):
(§3) The cDNA of mutant ESR1 was cloned into the target lentiviral vector pCDH-CMV-MCS-EF1-Puro (SBI, CD510B-1). The lentiviral plasmid with the mutant ESR1 gene sequence and the lentiviral packaging plasmids pVSV-G and pCMV-dR8.91 (SBI, LV500A-1) were transfected into HEK-293T cells (ATCC, CRL-3216) by Lipofectamine 3000 Transfection Reagent (ThermoFisher Scientific, Cat #L3000075). 48 hours after the transfection, the supernatant of the virus-containing DMEM high-glycemic medium (GE Healthcare, SH30243.01) containing 10% FBS was filtered, and ultracentrifuged to obtain the virus pellet. The virus pellet was resuspended in an appropriate amount of MEM medium (GE Healthcare, SH30024.01) containing 10% FBS, non-essential amino acids (SIGMA, M7145-100ML) and sodium pyruvate (SIGMA, S8636-100ML), and the resulting suspension was added to MCF7 cells (ATCC, HTB-22). Polybrene (SIGMA, H9268-5G) at a final concentration of 8 µg/ml was added, and the cells were incubated overnight. Two days after the transfection, […] puromycin (invitrogen, A11138-03) was added to the cell culture medium for resistance screening. After about two weeks, the MCF7 cell line capable of stably expressing ERαY537S and ERα D538G mutants was obtained.
as §1, with “MCF7 cells expressing ERα mutant were cultured” for “MCF7 cells (ATCC, HTB-22) were cultured”, “the experiment, the cells were” for “the experiment, MCF7 cells were”, “control containing 0.500 DMSO was” for “control containing 0.5% DMSO was”, “C. and […] for” for “C. and 5% CO2 for”, “and 150 of CellTiter-Glo®” for “and 150 μl of CellTiter-Glo®”

Another assay has as its system MCF7 D538G. Description: Inhibition of proliferation of MCF7 cell expressing ERα D538G mutant. Conditions: Homo sapiens, 144 hours; for Emax: read-out: Maximum inhibition.
Excerpt: as §2, §3
as §1, with “MCF7 cells expressing ERα mutant were cultured” for “MCF7 cells (ATCC, HTB-22) were cultured”, “the experiment, the cells were” for “the experiment, MCF7 cells were”, “control containing 0.500 DMSO was” for “control containing 0.5% DMSO was”, “C. and […] for” for “C. and 5% CO2 for”, “and 150 of CellTiter-Glo®” for “and 150 μl of CellTiter-Glo®”

With `CN(C)C(=O)/C=C/CN1CC[C@@H](Oc2ccc(/C(=C(/CC(F)(F)F)c3ccccc3)c3ccc4[nH]nc(F)c4c3)cn2)C1` [Example 29, (E)-N,N-Dimethyl-4-((R)-3-((5-((Z)-4,4,4-trifluoro-1-(3-fluoro-1H-indazol-5-yl)-2-phenylbut-1-en-1-yl)pyridin-2-yl)oxy)pyrrolidin-1-yl)but-2-enamide], the IC50 turned out to be 0.4 nM in the assay with MCF7 cell, 3 nM in assay [1], 2 nM in the assay on MCF7 ERαY537S and 3 nM with MCF7 D538G. Besides, the Emax with MCF7 cell, in the assay with MCF7 ERαY537S and in the assay on MCF7 D538G was 93% throughout.
As for `CN(C)C(=O)/C=C/CN1CCC(Nc2ccc(/C(=C(/CC(F)(F)F)c3ccccc3)c3ccc4[nH]nc(F)c4c3)cn2)CC1` [Example 33, (E)-N,N-Dimethyl-4-(4-((5-((Z)-4,4,4-trifluoro-1-(3-fluoro-1H-indazol-5-yl)-2-phenylbut-1-en-1-yl)pyridin-2-yl)amino)piperidin-1-yl)but-2-enamide], the IC50 in the assay on MCF7 cell was 0.3 nM; in assay [1] it was 3 nM; in the assay on MCF7 ERαY537S, 2 nM; in the assay on MCF7 D538G, 1 nM. Also, the Emax in the assay on MCF7 cell is 105%; with MCF7 ERαY537S, 105%; in the assay with MCF7 D538G, 106%.
For `CN(C)C(=O)/C=C/CN[C@@H]1CCN(c2ccc(/C(=C(/CC(F)(F)F)c3ccccc3)c3ccc4[nH]nc(F)c4c3)cn2)C1` [Example 34, (E)-N,N-Dimethyl-4-(((R)-1-(5-((Z)-4,4,4-trifluoro-1-(3-fluoro-1H-indazol-5-yl)-2-phenylbut-1-en-1-yl)pyridin-2-yl)pyrrolidin-3-yl)amino)but-2-enamide], the IC50 in the assay with MCF7 cell was found to be 0.2 nM; in assay [1], 3 nM; with MCF7 ERαY537S it was 1 nM; in the assay with MCF7 D538G, 1 nM. Further, the values for the Emax in the assay on MCF7 cell, with MCF7 ERαY537S and in the assay with MCF7 D538G were 103%, 105% and 101%, respectively.
`CN(C)C(=O)/C=C/CN[C@H]1CCN(c2ccc(/C(=C(/CC(F)(F)F)c3ccccc3)c3ccc4[nH]nc(F)c4c3)cn2)C1` [Example 35, (E)-N,N-Dimethyl-4-(((S)-1-(5-((Z)-4,4,4-trifluoro-1-(3-fluoro-1H-indazol-5-yl)-2-phenylbut-1-en-1-yl)pyridin-2-yl)pyrrolidin-3-yl)amino)but-2-enamide]: the IC50 turned out to be 1.1 nM in the assay on MCF7 cell, 4 nM in assay [1], 6 nM with MCF7 ERαY537S and 3 nM in the assay on MCF7 D538G. In addition, the Emax amounted to 105% in the assay on MCF7 cell, 97% with MCF7 ERαY537S and 104% in the assay on MCF7 D538G.
On to `CN(C)C(=O)/C=C/CNC1CCN(c2ccc(/C(=C(/CC(F)(F)F)c3ccccc3)c3ccc4[nH]nc(F)c4c3)cn2)CC1` [Example 36, (E)-N,N-Dimethyl-4-((1-(5-((Z)-4,4,4-trifluoro-1-(3-fluoro-1H-indazol-5-yl)-2-phenylbut-1-en-1-yl)pyridin-2-yl)piperidin-4-yl)amino)but-2-enamide], for which the IC50 in the assay with MCF7 cell came to 0.5 nM; in assay [1], 5 nM; with MCF7 ERαY537S, 3 nM; in the assay with MCF7 D538G, 2 nM. Also, the Emax in the assay with MCF7 cell was 104%; in the assay on MCF7 ERαY537S, 100%; in the assay on MCF7 D538G, 99%.
In the case of `CN(C)C(=O)/C=C/CN(C)[C@H]1CCCN(c2ccc(/C(=C(/CC(F)(F)F)c3ccccc3)c3ccc4[nH]nc(F)c4c3)cn2)C1` [Example 37, (E)-N,N-Dimethyl-4-(methyl((S)-1-(5-((Z)-4,4,4-trifluoro-1-(3-fluoro-1H-indazol-5-yl)-2-phenylbut-1-en-1-yl)pyridin-2-yl)piperidin-3-yl)amino)but-2-enamide], the IC50 in the assay on MCF7 cell turned out to be 0.8 nM; in assay [1], 8 nM; with MCF7 ERαY537S it was 3 nM; in the assay on MCF7 D538G it was 2 nM. Moreover, the Emax with MCF7 cell is 98%; with MCF7 ERαY537S, 86%; in the assay on MCF7 D538G, 101%.
